Peptide text beside a SMILES is read from it.
Experiments:
HSV-1 R10.2 = assay: Inhibition of cell-free HSV-1 infection of HFFs; type: cell-based, herpes simplex virus 1; details: 1 h preincubation, MOI 1, fixed 6 h p.i.
[1] = tested on: HCMV strain Merlin-pAL1502; assay: Cell-associated focal spread of Merlin-pAL1502 in HFFs; type: cell-based, Human cytomegalovirus
HSV-2 R6 = assay: Inhibition of cell-free HSV-2 infection of HFFs; type: cell-based, herpes simplex virus 2; details: 1 h preincubation, MOI 1, fixed 6 h p.i.
[2] = tested on: recent cell-associated clinical HCMV isolates; assay: Cell-associated focal spread of recent clinical HCMV isolates in HFF co-culture; type: cell-based, Human cytomegalovirus; details: 60 µmol/L, added 1 d p.i., fixed 7 d p.i.
[3] = tested on: Merlin-pAL1502-UL32EGFP-UL100mCherry; assay: Single particle analysis of virion transfer with dual fluorescent Merlin; type: cell-based, Human cytomegalovirus; details: 125 µmol/L, added 1 d p.i.
TB40-BAC4 = assay: Inhibition of cell-free HCMV infection of HFFs (TB40-BAC4); type: cell-based, Human cytomegalovirus
[4] = tested on: HCMV strain Merlin-pAL1502; assay: Reversibility of inhibition of cell-associated spread after peptide removal; type: cell-based, Human cytomegalovirus

CC[C@H](C)[C@H](NC(=O)[C@H](Cc1ccc(O)cc1)NC(=O)[C@@H](NC(=O)[C@H](Cc1c[nH]cn1)NC(=O)[C@H](CCCNC(=N)N)NC(=O)CN)[C@@H](C)CC)C(=O)N[C@@H](Cc1ccc(O)cc1)C(=O)N[C@H](C(=O)N1CCC[C@H]1C(=O)N[C@@H](CC(=O)O)C(=O)N1CCC[C@H]1C(=O)N[C@@H](CC(=O)O)C(=O)N[C@H](C(=O)N[C@@H](C)C(=O)N[C@@H](Cc1ccccc1)C(=O)N[C@H](C(=O)N1CCC[C@H]1C(=O)N[C@@H](CC(C)C)C(=O)NCC(=O)N[C@@H](CCSC)C(=O)N[C@H](C(=O)N[C@@H](CC(=O)O)C(=O)N[C@@H](Cc1ccc(O)cc1)C(=O)N[C@@H](CC(C)C)C(=O)N[C@H](C(=O)N[C@H](C(=O)N[C@H](C(=O)N[C@@H](CCC(=O)O)C(=O)N[C@@H](CC(=O)O)C(=O)N[C@@H](CC(=O)O)C(=O)O)C(C)C)[C@@H](C)CC)C(C)C)[C@@H](C)O)C(C)C)C(C)C)C(C)C [GD30] (H-GRHIYIYVPDPDVAFVPLGMTDYLVIVEDD-OH; N-terminus and C-terminus assumed)
Extent of inhibition of cell-free virus (HSV-1 R10.2): completely | Reduction of focal growth compared with GT40 ([1]; 60 µmol/L, added 1 d p.i., fixed 7 d p.i.): to a similar extent but not more than GT40 | Inhibition of cell-associated spread ([1]; 125 µmol/L, applied 42 h p.i., MOI 0.005): almost completely inhibits | Extent of inhibition of cell-free virus (HSV-2 R6): completely | Reduction of focal growth compared with GT40 [2]: to a similar extent but not more than GT40 | Reduction of the total number of particles transferred ([3]; MOI 0.05, versus DMSO control, 10 frames): 78% | Percentage of naked capsids ([3]; MOI 0.05, untreated control 86%): 7% | Antiviral effect against cell-free virus (TB40-BAC4; 2 h preincubation with virus, MOI 1, fixed next day): effective against cell-free virus | Hill slope of the dose-response curve (TB40-BAC4; cell-free virus, 2 h preincubation, MOI 1): −1.67 | Focus size under permanent treatment ([4]; 125 µmol/L from 42 h p.i. until fixation at day 8): almost exclusively single infected cells | Reversibility of the inhibitory effect after peptide removal ([4]; 125 µmol/L from 42 h to 5 d p.i., then 3 d without peptide): completely reversible | Mean focus size after intermittent treatment ([4]; 125 µmol/L from 42 h to 5 d p.i., withdrawn, fixed 8 d p.i., untreated control up to 50): around 15 infected cells per focus

From PMC8473290 (Viruses, 2021)
